Literature values in patent US20260207657A1, “ANTISEPTIC COMPOSITIONS AND METHODS” (Solventum Intellectual Properties Company, priority 2022, published 2026).

Details: 25° C.

Which Solubility in water does the source give for II [molecular iodine] here?
The Solubility in water was 0.03 wt-%.
